These results are taken from PubChem BioAssay AID330 (DTP/NCI, 2004).

Each structure is given as a SMILES string. Values joined by “and” are separate entries in the source; they are usually repeats but may differ in a detail not shown here. Equal values may be shown once. Toxic doses and inconclusive results are not listed.

This experiment deals with P388 leukemia ip, CD2F1 mice, survival T/C. The experiment can be described thus: NCI In Vivo Anticancer Drug Screen. Data for tumor model P388 Leukemia (intraperitoneal) in CD2F1 (CDF1) mice. Conditions: endpoint: median survival time, higher = longer survival. The method in brief:
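Mice carrying the transplanted tumor received test compound or vehicle. Survival was recorded in each group, and the value is the treated-group measurement divided by that of the vehicle-treated control group.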

[1] abbreviates: dose: 50.0 mg/kg/injection, schedule: Q01DX009 (ip), vehicle: saline with Tween-80.
Setting [2] is: dose: 100.0 mg/kg/injection, schedule: Q01DX009 (ip), vehicle: saline with Tween-80.
The mark [3] stands for this setting: dose: 200.0 mg/kg/injection, schedule: Q01DX009 (ip), vehicle: saline with Tween-80.
Setting [4] is: dose: 60.0 mg/kg/injection, schedule: Q01DX005 (ip), vehicle: saline.
Setting [5] is: dose: 120.0 mg/kg/injection, schedule: Q01DX005 (ip), vehicle: saline.
[6] abbreviates: dose: 60.0 mg/kg/injection, schedule: Q01DX005 (ip), vehicle: saline with Tween-80.
The mark [7] stands for this setting: dose: 120.0 mg/kg/injection, schedule: Q01DX005 (ip), vehicle: saline with Tween-80.
Setting [8] is: dose: 100.0 mg/kg/injection, schedule: Q01DX009 (ip), vehicle: Klucel (hydroxypropylcellulose) (HPC).
Setting [9] is: dose: 200.0 mg/kg/injection, schedule: Q01DX009 (ip), vehicle: Klucel (hydroxypropylcellulose) (HPC).
The mark [10] stands for this setting: dose: 3.13 mg/kg/injection, schedule: Q01DX009 (ip), vehicle: saline with Tween-80.
Where [11] appears, read: dose: 6.25 mg/kg/injection, schedule: Q01DX009 (ip), vehicle: saline with Tween-80.
[12] abbreviates: dose: 12.5 mg/kg/injection, schedule: Q01DX009 (ip), vehicle: saline with Tween-80.
The mark [13] stands for this setting: dose: 25.0 mg/kg/injection, schedule: Q01DX009 (ip), vehicle: saline with Tween-80.
The mark [14] stands for this setting: dose: 50.0 mg/kg/injection, schedule: Q01DX005 (ip), vehicle: saline with Tween-80.
Setting [15] is: dose: 240.0 mg/kg/injection, schedule: Q01DX005 (ip), vehicle: saline with Tween-80.

As to `NCc1c(O)ccc2ccccc12`, the T/C by setting is: under setting [1], 105 % of control; under setting [2], 107 % of control; under setting [3], 108 % of control.
Regarding `CCCCCC(O)(CCCCC)CCCCC`, the T/C is 101 % of control under setting [4]; 101 % of control under setting [5]; 92 % of control (dose: 240.0 mg/kg/injection, schedule: Q01DX005 (ip), vehicle: saline).
`CS(=O)(=O)N/N=C/C(=O)O`: the T/C was 118 % of control (dose: 12.5 mg/kg/injection, schedule: Q01DX009 (ip), vehicle: water); 160 % of control (dose: 50.0 mg/kg/injection, schedule: Q01DX009 (ip), vehicle: water); 157 % of control and 159 % of control (dose: 100.0 mg/kg/injection, schedule: Q01DX009 (ip), vehicle: water).
For `NC(=O)c1ccccc1OC(=O)Nc1ccc(F)cc1`, the T/C is, setting by setting: (dose: 15.0 mg/kg/injection, schedule: Q01DX005 (ip), vehicle: saline with Tween-80) 101 % of control; (dose: 30.0 mg/kg/injection, schedule: Q01DX005 (ip), vehicle: saline with Tween-80) 97 % of control; under setting [6], 99 % of control and 103 % of control; under setting [7], 99 % of control.
Regarding `O=[N+]([O-])C1CCCCCCCCCCC1`, the T/C runs as follows: (dose: 100.0 mg/kg/injection, schedule: Q01DX001 (ip), vehicle: other) 100 % of control; (dose: 200.0 mg/kg/injection, schedule: Q01DX001 (ip), vehicle: other) 100 % of control; (dose: 400.0 mg/kg/injection, schedule: Q01DX001 (ip), vehicle: other) 108 % of control.
Turning to `O=C(NC(CO)C(=O)O)OCc1ccccc1` (stereo unspecified), the T/C runs as follows: (dose: 50.0 mg/kg/injection, schedule: Q01DX009 (ip), vehicle: Klucel (hydroxypropylcellulose) (HPC)) 94 % of control; under setting [8], 99 % of control; under setting [9], 89 % of control.
Take `CSc1nc(SC)c2nc(SC)n(-c3ccccc3)c2n1`: the T/C by setting is: under setting [10], 102 % of control; under setting [11], 104 % of control; under setting [12], 101 % of control; under setting [13], 97 % of control.
In the case of `CCCCCCCCCCCCCCCC(=O)O`, the T/C under setting [1] was 107 % of control, the T/C under setting [2] is 102 % of control and the T/C under setting [3] is 102 % of control.
As to `CC(C)(C)OC(=O)NC(CCCCNC(=O)OCc1ccccc1)C(=O)NC(CCCCNC(=O)OCc1ccccc1)C(=O)NC(CCCCNC(=O)OCc1ccccc1)C(=O)OCc1ccccc1` (stereo unspecified), the T/C runs as follows: (dose: 12.5 mg/kg/injection, schedule: Q01DX005 (ip), vehicle: saline with Tween-80) 100 % of control; (dose: 25.0 mg/kg/injection, schedule: Q01DX005 (ip), vehicle: saline with Tween-80) 97 % of control; under setting [14], 100 % of control.
In the case of `O=[N+]([O-])c1cccnc1N=Nc1c(O)[nH]c2ccccc12`, the T/C reads like this: under setting [6], 100 % of control; under setting [7], 101 % of control; under setting [15], 110 % of control.
For `CC(C)CCCCCCCCCCCCC(=O)NCC(=O)NC1C(CO)OC(Nc2ncnc3nc[nH]c23)C(O)C1O` (stereo unspecified), the T/C is, setting by setting: (dose: 0.13 mg/kg/injection, schedule: Q01DX009 (ip), vehicle: other) 114 % of control; (dose: 0.5 mg/kg/injection, schedule: Q01DX009 (ip), vehicle: other) 161 % of control; (dose: 1.0 mg/kg/injection, schedule: Q01DX009 (ip), vehicle: other) 105 % of control; (dose: 2.0 mg/kg/injection, schedule: Q01DX009 (ip), vehicle: other) 89 % of control.
Turning to `CCOC(=O)N1C(C(=O)c2ccc(C)cc2)N(C2CCCCC2)C(c2ccccc2)N1C(=O)OCC` (stereo unspecified), the T/C (dose: 400.0 mg/kg/injection, schedule: Q01DX009 (ip), vehicle: saline with Tween-80) was 86 % of control.
With `O=c1c(-c2ccccc2)coc2cc(O)ccc12`, the T/C by setting is: under setting [6], 105 % of control; under setting [7], 89 % of control; under setting [15], 88 % of control.
Turning to `Clc1ccc(C2N3Cc4ccccc4CN2c2ccccc23)cc1`, the T/C by setting is: (dose: 100.0 mg/kg/injection, schedule: Q01DX001 (ip), vehicle: Klucel (hydroxypropylcellulose) (HPC)) 100 % of control; (dose: 200.0 mg/kg/injection, schedule: Q01DX001 (ip), vehicle: Klucel (hydroxypropylcellulose) (HPC)) 98 % of control; (dose: 400.0 mg/kg/injection, schedule: Q01DX001 (ip), vehicle: Klucel (hydroxypropylcellulose) (HPC)) 96 % of control.
`O=C(O)c1cc2c3ccccc3sc2c2ccccc12`: the T/C reads like this: (dose: 30.0 mg/kg/injection, schedule: Q01DX005 (ip), vehicle: Klucel (hydroxypropylcellulose) (HPC)) 93 % of control; (dose: 60.0 mg/kg/injection, schedule: Q01DX005 (ip), vehicle: Klucel (hydroxypropylcellulose) (HPC)) 93 % of control; (dose: 120.0 mg/kg/injection, schedule: Q01DX005 (ip), vehicle: Klucel (hydroxypropylcellulose) (HPC)) 90 % of control; (dose: 240.0 mg/kg/injection, schedule: Q01DX005 (ip), vehicle: Klucel (hydroxypropylcellulose) (HPC)) 90 % of control.
In the case of `CSc1nc(C)c(Br)c(Nc2ccc(C(N)=O)cc2)n1`, the T/C is, setting by setting: under setting [10], 102 % of control; under setting [11], 94 % of control; under setting [12], 96 % of control; under setting [13], 94 % of control.
As to `CCC(C)C1CCCCC1` (stereo unspecified), the T/C under setting [8] is 104 % of control; the T/C under setting [9] was 100 % of control; the T/C (dose: 400.0 mg/kg/injection, schedule: Q01DX009 (ip), vehicle: Klucel (hydroxypropylcellulose) (HPC)) is 101 % of control.
For `OCC12CC=CCC1C1CC=CCC1O2` (stereo unspecified), the T/C by setting is: (dose: 50.0 mg/kg/injection, schedule: Q01DX005 (ip), vehicle: saline) 101 % of control; (dose: 100.0 mg/kg/injection, schedule: Q01DX005 (ip), vehicle: saline) 99 % of control; (dose: 200.0 mg/kg/injection, schedule: Q01DX005 (ip), vehicle: saline) 103 % of control.
As for `CCCCC(CN(C)C)C(=O)/C=C/c1ccccc1` (stereo unspecified), the T/C runs as follows: under setting [4], 109 % of control; under setting [5], 123 % of control.
Consider `ClCCc1ccn[nH]1`, for which the T/C (dose: 100.0 mg/kg/injection, schedule: Q04DX002 (ip), vehicle: saline) is 97 % of control and the T/C (dose: 200.0 mg/kg/injection, schedule: Q04DX002 (ip), vehicle: saline) is 99 % of control.
As to `O=C1NC(=O)C(=Cc2c(Cl)cccc2Cl)C(=O)N1`, the T/C by setting is: under setting [12], 116 % of control; under setting [13], 122 % of control; under setting [1], 122 % of control.
For `COc1cc(OC)c(C(=O)O)cc1Cl`, the T/C was 100 % of control (dose: 100.0 mg/kg/injection, schedule: Q04DX003 (ip), vehicle: Klucel (hydroxypropylcellulose) (HPC)); 101 % of control (dose: 200.0 mg/kg/injection, schedule: Q04DX003 (ip), vehicle: Klucel (hydroxypropylcellulose) (HPC)); 100 % of control (dose: 400.0 mg/kg/injection, schedule: Q04DX003 (ip), vehicle: Klucel (hydroxypropylcellulose) (HPC)).
In the case of `ClC1=CC(Cl)=C2N=C(N3CCCC3)N=C3N=C(C(Cl)(Cl)Cl)N=C1N32`, the T/C (dose: 60.0 mg/kg/injection, schedule: Q01DX005 (ip), vehicle: Klucel + Tween-80) was 96 % of control; the T/C (dose: 120.0 mg/kg/injection, schedule: Q01DX005 (ip), vehicle: Klucel + Tween-80) was 96 % of control; the T/C (dose: 240.0 mg/kg/injection, schedule: Q01DX005 (ip), vehicle: Klucel + Tween-80) was 87 % of control.
As to `COC(=O)C1=C/CCCN(CCC2OCCO2)/C=C\1C(=O)OC`, the T/C reads like this: (dose: 100.0 mg/kg/injection, schedule: Q04DX003 (ip), vehicle: saline with Tween-80) 106 % of control; (dose: 200.0 mg/kg/injection, schedule: Q04DX003 (ip), vehicle: saline with Tween-80) 99 % of control; (dose: 400.0 mg/kg/injection, schedule: Q04DX003 (ip), vehicle: saline with Tween-80) 108 % of control.
With `COCC1(C)CC2CCCCC2CC1(C)O` (stereo unspecified), the T/C is 93 % of control under setting [14]; 95 % of control (dose: 100.0 mg/kg/injection, schedule: Q01DX005 (ip), vehicle: saline with Tween-80); 86 % of control (dose: 200.0 mg/kg/injection, schedule: Q01DX005 (ip), vehicle: saline with Tween-80).
